From article PMC10385824, “Antiproliferative and Tubulin-Destabilising Effects of 3-(Prop-1-en-2-yl)azetidin-2-Ones and Related Compounds in MCF-7 and MDA-MB-231 Breast Cancer Cells” (Pharmaceuticals, 2023)
Where two headings read alike, the source gives them in different places.

Legend:
CCRF-CEM = assay: NCI-60 SRB screen, leukemia; type: cell-based; conditions: Homo sapiens, five dose 0.01–100 µM, 48 h, read-out: GI50
RPMI-8226 = assay: NCI-60 SRB screen, leukemia; type: cell-based, human; conditions: Homo sapiens; RPMI-8226; five dose 0.01–100 µM, 48 h; read-out: GI50
NCI/ADR-RES = assay: NCI-60 SRB screen, ovarian cancer; type: cell-based, human; conditions: Homo sapiens, five dose 0.01–100 µM, 48 h, read-out: GI50
HCT-116 = assay: NCI-60 SRB screen, colon cancer; type: cell-based, human; conditions: Homo sapiens; HCT-116; five dose 0.01–100 µM, 48 h; read-out: GI50
SF295 = assay: NCI-60 SRB screen, CNS cancer; type: cell-based, human; conditions: Homo sapiens, SF-295; SF295; five dose 0.01–100 µM, 48 h; read-out: GI50
IGROV1 = assay: NCI-60 SRB screen, ovarian cancer; type: cell-based, human; conditions: Homo sapiens, IGROV-1; IGROV1; five dose 0.01–100 µM, 48 h; read-out: GI50
ACHN = assay: NCI-60 SRB screen, renal cancer; type: cell-based, human; conditions: Homo sapiens, five dose 0.01–100 µM, 48 h, read-out: GI50
A549/ATCC = assay: NCI-60 SRB screen, non-small cell lung cancer; type: cell-based, human; conditions: Homo sapiens; A549/ATCC; five dose 0.01–100 µM, 48 h; read-out: GI50
OVCAR-4 = assay: NCI-60 SRB screen, ovarian cancer; type: cell-based, human; conditions: Homo sapiens; OVCAR-4; five dose 0.01–100 µM, 48 h; read-out: GI50
OVCAR-8 = assay: NCI-60 SRB screen, ovarian cancer; type: cell-based, human; conditions: Homo sapiens; OVCAR-8; five dose 0.01–100 µM, 48 h; read-out: GI50
MCF-7 = assay: cells; conditions: Homo sapiens, MCF7, 48 h
SK-MEL-2 = assay: NCI-60 SRB screen, melanoma; type: cell-based, human; conditions: Homo sapiens; SK-MEL-2; five dose 0.01–100 µM, 48 h; read-out: GI50
[1] = system: NCI 60 human cancer cell line panel; assay: NCI 60 cell line screen (SRB), panel values; conditions: for IC (TGI (total growth inhibition)): read-out: Mean TGI
UO-31 = assay: NCI-60 SRB screen, renal cancer; type: cell-based, human; conditions: Homo sapiens; UO-31; five dose 0.01–100 µM, 48 h; read-out: GI50
K-562 = assay: NCI-60 SRB screen, leukemia; type: cell-based, human; conditions: Homo sapiens, K562, 48 h; read-out: GI50
SNB-75 = assay: NCI-60 SRB screen, CNS cancer; type: cell-based, human; conditions: Homo sapiens; SNB-75; five dose 0.01–100 µM, 48 h; read-out: GI50
UACC-62 = assay: NCI-60 SRB screen, melanoma; type: cell-based, human; conditions: Homo sapiens; UACC-62; five dose 0.01–100 µM, 48 h; read-out: GI50
MOLT-4 = assay: NCI-60 SRB screen, leukemia; type: cell-based, human; conditions: Homo sapiens; MOLT-4; five dose 0.01–100 µM, 48 h; read-out: GI50
CAKI-1 = assay: NCI-60 SRB screen, renal cancer; type: cell-based, human; conditions: Homo sapiens; CAKI-1; five dose 0.01–100 µM, 48 h; read-out: GI50
TK-10 = assay: NCI-60 SRB screen, renal cancer; type: cell-based, human; conditions: Homo sapiens; TK-10; five dose 0.01–100 µM, 48 h; read-out: GI50
U251 = assay: NCI-60 SRB screen, CNS cancer; type: cell-based, human; conditions: Homo sapiens, U-251; U251; five dose 0.01–100 µM, 48 h; read-out: GI50
OVCAR-3 = assay: NCI-60 SRB screen, ovarian cancer; type: cell-based, human; conditions: Homo sapiens; OVCAR-3; five dose 0.01–100 µM, 48 h; read-out: GI50
RXF 393 = assay: NCI-60 SRB screen, renal cancer; type: cell-based, human; conditions: Homo sapiens; RXF 393; five dose 0.01–100 µM, 48 h; read-out: GI50
A498 = assay: NCI-60 SRB screen, renal cancer; type: cell-based, human; conditions: Homo sapiens; A498; five dose 0.01–100 µM, 48 h; read-out: GI50
[2] = system: purified bovine brain tubulin; assay: Tubulin polymerization assay (light scattering, BK006 kit); type: biochemical; conditions: compound at 10 μM; relative to vehicle
In short: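 Compounds tested at 10 µM against vehicle (1% DMSO or EtOH) with bovine brain tubulin, 3 mg/mL, in pH 6.9 PIPES buffer containing 1 mM GTP and 10% glycerol, 37 °C. Light scattering at 340 nm tracked microtubule formation; average of two independent runs reported.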

MDA-MB-468 = assay: NCI-60 SRB screen, breast cancer; type: cell-based, human; conditions: Homo sapiens; MDA-MB-468; five dose 0.01–100 µM, 48 h; read-out: GI50
NCI-H332M = assay: NCI-60 SRB screen, non-small cell lung cancer; type: cell-based; conditions: Homo sapiens, […], five dose 0.01–100 µM, 48 h, read-out: GI50
SK-MEL-28 = assay: NCI-60 SRB screen, melanoma; type: cell-based, human; conditions: Homo sapiens; SK-MEL-28; five dose 0.01–100 µM, 48 h; read-out: GI50
[3] = Homo sapiens, 60 cell, read-out: Mean GI50, mean over all NCI 60 cell lines
[4] = Homo sapiens, 60 cell, read-out: Mean LC50

Row | SMILES | GI50 (CCRF-CEM) [nM] | GI50 (RPMI-8226) [nM] | GI50 (NCI/ADR-RES) [nM] | GI50 (HCT-116) [nM] | GI50 (SF295) [nM] | GI50 (IGROV1) [nM] | GI50 (ACHN) [nM] | GI50 (A549/ATCC) [nM] | GI50 (OVCAR-4) [nM] | GI50 (OVCAR-8) [nM] | GI50 (MCF-7) [nM] | GI50 (SK-MEL-2) [nM] | GI50 [1, 3] [nM] | CC50 [1, 4] [nM] | IC (TGI (total growth inhibition)) ([1]; Homo sapiens, 60 cell) [nM] | GI50 (UO-31) [nM] | GI50 (K-562) [nM] | GI50 (SNB-75) [nM] | GI50 (UACC-62) [nM] | GI50 (MOLT-4) [nM] | also measured
1 | C=C(C)C1C(=O)N(c2cc(OC)c(OC)c(OC)c2)C1c1ccc(OC)cc1 (centres unmarked) [9h, 4-(4-Methoxyphenyl)-1-(3,4,5-trimethoxyphenyl)-3-(prop-1-en-2-yl)azetidin-2-one] | 37.5 | 39.9 | 21.3 | 31.7 | 43 | 49.9 | 64.3 | 40.8 | 39.1 | 37.3 | 36.8 | 18600 | < 91.2 | 87100 | 15500 | 505 | 41 | 38 | 39.2 | 39.7 | CC50 ([1]; Homo sapiens, 60 cell, 9 h, read-out: LC50): > 100000 nM; GI50 ([1]; read-out: Mean GI50, mean over all NCI 60 cell lines): 58.9 nM; GI50 (CAKI-1): 83.1 nM; GI50 (TK-10): 96.5 nM; GI50 (U251): 36 nM; GI50 (OVCAR-3): 25.4 nM; GI50 (RXF 393): 37.5 nM; GI50 (A498): 24.3 nM; Fold Reduction in Vmax [2]: 1.81; GI50 (MDA-MB-468): 25 nM
2 | C=C(C)C1C(=O)N(c2cc(OC)c(OC)c(OC)c2)C1c1ccc(OC)c(OP(=O)(O)O)c1 (centres unmarked) [15a, 2-Methoxy-5-(4-oxo-3-(prop-1-en-2-yl)-1-(3,4,5-trimethoxyphenyl)azetidin-2-yl)-phenyl dihydrogen phosphate] | 55.7 | 105 | 36.5 | 50.6 | 32.4 | 62.8 | 77.1 | 59.6 | 73.9 | 50.6 | 51.3 | 75 | 138 | 85100 | 43600 | 182 | 45 | 36.1 | 55.5 | 85.2 | GI50 (NCI-H332M): 82 nM; GI50 (CAKI-1): 80.5 nM; GI50 (TK-10): 43100 nM; GI50 (U251): 39.5 nM; GI50 (OVCAR-3): 62.4 nM; GI50 (RXF 393): 123 nM; GI50 (A498): 32.4 nM; GI50 (MDA-MB-468): 131 nM; GI50 (SK-MEL-28): 83.1 nM
